Experimental data as given in PMC9782245, “Synthesis and Structural Optimization of 2,7,9-Trisubstituted purin-8-ones as FLT3-ITD Inhibitors” (International Journal of Molecular Sciences, 2022).
One block for each compound: values may come before it.

Tests used:
K562 cells = assay: Flow cytometric cell cycle analysis, K562; format: cell-based, Human; details: 24 h
Experimental: (§1) FLT3 inhibition causes G1-cell cycle arrest in FLT3-dependent cell lines such as MV4-11; we, therefore, performed flow cytometric analysis to evaluate cell cycle changes in MV4-11 and K562 cell lines treated with 200 nM compounds for 24 h. […] Specifically, 18 compounds arrested >85% of cells in the G1 phase, which is >30% cells in the G1 phase of the cell cycle than in control cells (Figure 4A).
(§2) Finally, we performed flow cytometric analysis with different concentrations of 15a in MV4-11 and MOLM13 (another FLT-ITD positive cell line) and K562 cell lines treated for 24 h (Figure 5).
(§3) Asynchronously growing cells were seeded into a 96-well plate and, after a preincubation period, treated with tested compounds for 24 h. The treated cells were stained directly (or after trypsinization for the adherent cells) with the 5× staining solution (17 mM trisodium citrate dihydrate, 0.5% IGEPAL CA-630, 7.5 mM spermine tetrahydrochloride, and 2.5 mM Tris; pH 7.6 containing […] propidium iodide). After the staining, DNA content was analyzed using flow cytometry using a 488 nm laser (BD FACS Verse with software BD FACSuite^TM, version 1.0.6). Cell cycle distribution was analyzed using ModFit LT (Verity Software House, version 5.0). Palbociclib, trilaciclib, and quizartinib were purchased from MedChemExpress, Monmouth Junction, NJ, USA.

[1] = Stability studied on Caco-2 cells; format: in vitro ADME; details: in comparison with trilaciclib
MOLM13 cells = assay: Flow cytometric cell cycle analysis, MOLM13; format: cell-based; details: increasing doses, 24 h
Experimental: as §2
as §3, with “5.0).” for “5.0). Palbociclib, trilaciclib, and quizartinib were purchased from MedChemExpress, Monmouth Junction, NJ, USA.”

MV4-11 cells = assay: Flow cytometric cell cycle analysis, MV4-11; format: cell-based, Human; details: increasing doses, 24 h
Experimental: as §1, §2, §3

MV4-11 xenograft = assay: MV4-11 subcutaneous xenograft model in NSG mice; format: in vivo; details: 20 mg/kg, daily i.p.
Description: Finally, we tested the in vivo activity of 15a in a model of AML based on subcutaneous xenotransplantation of MV4-11 cells in immunodeficient mice.
The experimental design was approved by the Institutional Animal Care and Use Committee (MSMT-37334/2020-4). Immunodeficient adult female NOD.Cg-Prkdc^scidIl2rg^tm1Wjl/SzJ mice (referred to as NSG mice) were purchased from The Jackson Laboratory and preserved in a pathogen-free environment in individually ventilated cages, provided with sterilized food and water. NSG mice were subcutaneously inoculated with 10 × 10^6 leukemia cells. […] Each cohort contained 6 animals. Three perpendicular dimensions (in millimeters) were measured daily with a digital caliper and tumor volumes were calculated using the following formula: π/6 × length × width × height. An experiment was terminated (and mice euthanized) when tumors exceeded 20 mm in the largest diameter.

Abl = molecular target: T1, Abl (Homo sapiens, UniProt P00519); assay: Kinase selectivity panel at 1 µM (Eurofins), Abl; format: biochemical; details: read-out: residual enzyme activity Abl
T1 construct: purchased Eurofins Discovery (France)
T1 sequence (P00519 whole entry): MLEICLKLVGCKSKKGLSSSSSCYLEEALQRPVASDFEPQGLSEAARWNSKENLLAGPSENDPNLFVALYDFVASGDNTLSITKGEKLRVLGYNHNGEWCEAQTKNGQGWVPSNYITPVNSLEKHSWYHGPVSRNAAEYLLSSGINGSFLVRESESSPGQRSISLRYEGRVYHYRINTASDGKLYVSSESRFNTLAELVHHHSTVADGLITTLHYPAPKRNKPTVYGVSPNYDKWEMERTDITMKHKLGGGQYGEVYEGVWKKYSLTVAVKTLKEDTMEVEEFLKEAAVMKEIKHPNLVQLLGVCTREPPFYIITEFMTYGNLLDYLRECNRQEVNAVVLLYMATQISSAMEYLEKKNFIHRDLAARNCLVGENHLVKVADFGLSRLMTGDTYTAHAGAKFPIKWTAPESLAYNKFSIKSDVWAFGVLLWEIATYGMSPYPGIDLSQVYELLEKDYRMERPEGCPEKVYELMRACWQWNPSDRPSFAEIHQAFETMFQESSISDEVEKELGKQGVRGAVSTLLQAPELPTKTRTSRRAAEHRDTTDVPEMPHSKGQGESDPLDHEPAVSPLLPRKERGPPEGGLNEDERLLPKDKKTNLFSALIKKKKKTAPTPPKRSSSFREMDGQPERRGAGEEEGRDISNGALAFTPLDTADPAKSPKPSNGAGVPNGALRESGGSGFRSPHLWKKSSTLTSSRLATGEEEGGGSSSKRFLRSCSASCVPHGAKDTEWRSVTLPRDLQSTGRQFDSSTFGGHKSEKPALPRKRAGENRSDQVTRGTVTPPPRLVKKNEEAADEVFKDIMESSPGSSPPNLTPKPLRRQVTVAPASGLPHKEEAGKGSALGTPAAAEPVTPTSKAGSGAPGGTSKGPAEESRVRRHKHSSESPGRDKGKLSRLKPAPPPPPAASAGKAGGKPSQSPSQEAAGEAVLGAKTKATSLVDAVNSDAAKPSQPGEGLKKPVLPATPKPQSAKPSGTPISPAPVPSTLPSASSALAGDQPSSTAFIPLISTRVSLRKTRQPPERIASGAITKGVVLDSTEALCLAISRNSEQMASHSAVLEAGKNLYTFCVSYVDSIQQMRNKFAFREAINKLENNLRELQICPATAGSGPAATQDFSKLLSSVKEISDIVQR
Experimental: (§4) Three representative compounds (14d, 14e, and 15a) were profiled in a 1 µM concentration against 30 kinases that were selected as known off-targets of approved CDK4/6 inhibitors. […] Additional sensitive kinases include STK16, EphA1, MEKK2, SRC, and MER (≤10% of residual enzyme activities), which are not targets of the structurally similar CDK4/6 inhibitor, trilaciclib. We also screened compound 15a, an analogue of 14d, bearing isopropyl at position 7 of the purine instead of the methyl group. This change rapidly diminished the potency against CDK4 (dropped to 90% of residual enzyme activity), but the preference for FLT3 remained (1st rank) (Figure 2).
(§5) CDK/cyclin complexes and FLT3 kinases were assayed as previously described. Protein kinase selectivity was evaluated at a single concentration (1 µM) by screening against 30 enzymes at Eurofins Discovery (France).

TTK = molecular target: T2, TTK (Homo sapiens, UniProt P33981); assay: Kinase selectivity panel at 1 µM (Eurofins), TTK; format: biochemical; details: read-out: residual enzyme activity TTK
T2 construct: purchased Eurofins Discovery (France)
T2 sequence (P33981 1-857): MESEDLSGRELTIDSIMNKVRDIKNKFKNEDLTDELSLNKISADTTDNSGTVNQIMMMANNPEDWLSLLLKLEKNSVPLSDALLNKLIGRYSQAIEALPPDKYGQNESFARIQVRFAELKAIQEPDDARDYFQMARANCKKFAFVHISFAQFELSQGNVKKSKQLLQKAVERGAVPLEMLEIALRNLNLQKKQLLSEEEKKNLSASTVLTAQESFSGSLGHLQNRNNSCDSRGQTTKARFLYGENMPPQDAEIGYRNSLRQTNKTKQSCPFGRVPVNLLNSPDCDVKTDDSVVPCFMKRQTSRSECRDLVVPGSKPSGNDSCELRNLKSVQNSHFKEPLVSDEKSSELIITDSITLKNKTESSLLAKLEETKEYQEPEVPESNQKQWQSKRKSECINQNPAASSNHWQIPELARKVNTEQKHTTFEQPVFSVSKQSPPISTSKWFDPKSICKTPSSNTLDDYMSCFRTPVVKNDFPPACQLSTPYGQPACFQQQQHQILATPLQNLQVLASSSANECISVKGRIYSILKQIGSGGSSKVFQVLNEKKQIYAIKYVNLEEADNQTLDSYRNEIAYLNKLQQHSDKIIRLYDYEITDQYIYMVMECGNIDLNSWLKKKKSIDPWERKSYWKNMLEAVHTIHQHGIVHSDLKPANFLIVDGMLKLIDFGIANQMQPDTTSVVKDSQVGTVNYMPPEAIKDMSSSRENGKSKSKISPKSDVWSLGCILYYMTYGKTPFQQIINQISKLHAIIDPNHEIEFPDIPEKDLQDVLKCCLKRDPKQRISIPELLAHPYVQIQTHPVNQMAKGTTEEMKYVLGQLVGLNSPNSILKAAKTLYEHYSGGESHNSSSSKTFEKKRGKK
Experimental: as §4, §5

Lyn = molecular target: T3, Lyn (Homo sapiens, UniProt P07948); assay: Kinase selectivity panel at 1 µM (Eurofins), Lyn; format: biochemical; details: read-out: residual enzyme activity Lyn
T3 construct: purchased Eurofins Discovery (France)
T3 sequence (P07948 whole entry): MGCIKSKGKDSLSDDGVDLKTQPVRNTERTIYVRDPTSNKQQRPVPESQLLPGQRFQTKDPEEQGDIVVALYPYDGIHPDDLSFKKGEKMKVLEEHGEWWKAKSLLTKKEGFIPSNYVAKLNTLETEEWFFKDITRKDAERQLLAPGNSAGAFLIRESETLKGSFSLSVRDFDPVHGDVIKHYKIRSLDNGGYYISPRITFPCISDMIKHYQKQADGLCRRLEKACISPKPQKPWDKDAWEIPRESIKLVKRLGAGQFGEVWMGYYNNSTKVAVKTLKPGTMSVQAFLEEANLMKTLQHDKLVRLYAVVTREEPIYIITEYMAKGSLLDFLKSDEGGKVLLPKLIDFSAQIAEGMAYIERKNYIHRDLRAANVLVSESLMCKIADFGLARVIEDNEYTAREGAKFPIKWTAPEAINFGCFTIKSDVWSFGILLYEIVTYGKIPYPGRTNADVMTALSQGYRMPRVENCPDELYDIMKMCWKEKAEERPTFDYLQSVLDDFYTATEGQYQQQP
Experimental: as §4, §5

melting point: 110 to 112 °C
SMILES: Cn1c(=O)n(C2CCCC2)c2nc(Nc3ccc(N4CCNCC4)cc3)ncc21 [14d]

stability (Caco-2 cells) [1]: substantially higher stability
SMILES: Cn1c(=O)n(C2CCCCC2)c2nc(Nc3ccc(N4CCNCC4)cc3)ncc21 [14e]
effect on cell cycle (G1 arrest) in K562 (K562 cells; 200 nM): moderate G1 block

mice weight during therapy (MV4-11 xenograft): no significant reduction in mice weight | remaining activity at 1 µM (Abl): ≤ 10% | remaining activity at 1 µM (TTK): ≤ 10% | remaining activity at 1 µM (Lyn): ≤ 10%
SMILES: CC(C)n1c(=O)n(C2CCCC2)c2nc(Nc3ccc(N4CCNCC4)cc3)ncc21 [15a, 9-cyclopentyl-7-isopropyl-2-((4-(piperazin-1-yl)phenyl)amino)-7,9-dihydro-8H-purin-8-one]
cells in the G1 phase, MOLM13 (MOLM13 cells): up to 90% | cells in the G1 phase, MV4-11 (MV4-11 cells): up to 90% | growth of xenografted MV4-11 cells (MV4-11 xenograft; 7 days, vs vehicle): significant reduction in the growth | cell cycle changes in K562 (K562 cells; different concentrations): did not show any changes
